The results in this text go back to ChEMBL document CHEMBL3804831, “N-Acyl Dehydrotyrosines, Tyrosinase Inhibitors from the Marine Bacterium Thalassotalea sp. PP2-459” (J Nat Prod, 2016).

One experiment addresses T1, Tyrosinase (Agaricus bisporus, UniProt O42713).
T1 sequence (O42713 whole entry): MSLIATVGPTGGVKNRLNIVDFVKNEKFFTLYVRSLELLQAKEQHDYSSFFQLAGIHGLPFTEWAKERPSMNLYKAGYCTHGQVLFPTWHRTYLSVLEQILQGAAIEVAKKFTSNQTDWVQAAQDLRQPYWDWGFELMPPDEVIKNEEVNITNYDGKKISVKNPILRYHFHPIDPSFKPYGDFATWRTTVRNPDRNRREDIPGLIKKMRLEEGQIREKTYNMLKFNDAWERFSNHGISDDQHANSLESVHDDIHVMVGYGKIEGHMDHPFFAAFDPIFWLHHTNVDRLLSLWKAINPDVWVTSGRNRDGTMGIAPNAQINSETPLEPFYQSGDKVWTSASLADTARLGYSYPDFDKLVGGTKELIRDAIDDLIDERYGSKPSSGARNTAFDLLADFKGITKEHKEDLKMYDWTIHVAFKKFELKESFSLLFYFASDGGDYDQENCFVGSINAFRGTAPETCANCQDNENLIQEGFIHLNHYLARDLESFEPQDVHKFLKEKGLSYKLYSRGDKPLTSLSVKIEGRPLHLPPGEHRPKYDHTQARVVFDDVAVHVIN

In experiment [1] the target is T2, Tyrosinase (Agaricus bisporus) (UniProt O42713).
T2 sequence (whole entry): T1 sequence (O42713 whole entry)
The experiment in a line: Inhibition of mushroom tyrosinase at 1 mM using L-tyrosine as a substrate after 30 mins by spectrophotometric method.

The source made the active and inactive calls. No cut-off for these calls is given here.

By IC50 is commonly meant the concentration that inhibits the measured activity by half. High values mean a need for much substance, low ones inhibition by little substance. The compound `CCCCCCCCCC(=O)N/C(=C\c1ccc(O)cc1)C(=O)O` yielded an IC50 against Tyrosinase of 130 µM.
On the same count and under the same terms, to `CCCCCCCCC(=O)N/C(=C\c1ccc(O)cc1)C(=O)O` belongs 280 µM; to `CC(C)CCCCCCC(=O)N/C(=C\c1ccc(O)cc1)C(=O)O`, 470 µM.
As to `CCCCCCCCCC(=O)N/C(=C\c1ccc(O)cc1)C(N)=O`, the inhibition result in experiment [1] is “inactive”.
On the same count and under the same terms, to `CC(C)CCCCCCC(=O)N/C(=C\c1ccc(O)cc1)C(N)=O` belongs “inactive”.
